The nature of the series: Dynamic Interfacial Tension analysis (Kruss DVT30 Drop Volume Tensiometer), ascending canola oil drop in aqueous surfactant phase. It counts as physicochemical. Conditions: 6 gpg water hardness; 15° C. How it is done: The Dynamic Interfacial Tension analysis was performed on a Kruss® DVT30 Drop Volume Tensiometer. The instrument is configured to measure the interfacial tension of an ascending oil drop in aqueous detergent (surfactant) phase. The oil was canola oil. The aqueous detergent and oil phases are temperature controlled via a Polyscience® circulating water temperature controller attached to tensiometer. A dynamic interfacial tension curve is generated by dispensing the oil drops into the aqueous detergent phase from an ascending capillary with diameter of 0.2540 mm over a range of flow rates and measuring the interfacial tension at each flow rate. Data is generated at oil dispensing flow rates of 500 uL/min-1 uL/min with 2 flow rates per decade on a logarithmic scale (7 flow rates measured). Interfacial tension is measured on three oil drops per flow rate, then averaged. Interfacial tension is reported in units of mN/m. Surface age of the oil drops at each flow rate is also recorded and plots can be generated either of interfacial tension (y-axis) versus oil flow rate (x-axis) or interfacial tension (y-axis) versus oil drop surface age (x-axis).

The results in this text go back to patent publication US8883698B2, “Compositions comprising a near terminal-branched compound and methods of making the same” (The Procter & Gamble Co, priority 2010, dated 2014).

As to 13-Methyltetradecylsulfate, the “precipitation observed during interfacial tension measurement” value is “NM (precipitated)”.
